# Article PMC7370100, “In Vitro Assessment of the Genotoxic Hazard of Novel Hydroxamic Acid- and Benzamide-Type Histone Deacetylase Inhibitors (HDACi)” (International Journal of Molecular Sciences, 2020)
# Like-named read-outs stand apart in the source and are kept apart here.
# How the values were obtained:
# V79 cells [1] = assay: Alkaline comet assay (DNA strand breaks); conditions: for Mean (% DNA in tail): untreated control 16.8
# Procedure: The formation of DNA strand breaks and apurinic/apyrimidinic sites was monitored employing the alkaline comet assay [87], which is part of the OECD guideline of in vivo genotoxicity testings and detects DNA strand breaks (DNA single- and double-strand breaks) and alkali-labile sites [87]. Briefly, after aspiration of the medium and trypsinization, cells were mixed with 0.5% melting agarose and transferred onto agarose-coated (1.5%) slides. After lysis in alkaline buffer (pH 10) (1 h, 4 °C, light protection) and unwinding of the DNA in precooled lysis buffer (pH >13) (20 min, 4 °C, light protection), electrophoresis was performed (electric current: 300 mA constant; 1 V/cm). After neutralization in salt buffer (pH 7.5) and staining with propidium iodide solution (50 µg/mL), comets were evaluated by fluorescence microscopy. Quantification of migrated DNA was performed with TriTek Comet Score™ software Version 1.5, evaluating ≥50 cells per condition (blinded assessment). […] Fold increase in tail intensities of treated cells were calculated by relating the % DNA in tail of treated cells to that of the corresponding untreated controls, which were set to 1.0 (see Figure 2B).
# V79 cells [2] = assay: Caspase-3/-7 cleavage by Western blot (apoptosis); format: cell-based, hamster; on apoptosis: key: −: no effect; 0: weak effect; +: moderate effect; ++: strong effect; +++: very strong effect as compared to untreated controls
# Procedure: The activation of the DDR was investigated by Western blot analysis. To this end, total cell extracts were obtained by lysing an equal number of cells in Roti®-Load buffer (Carl Roth GmbH (Karlsruhe, Germany)) (5 min, RT). After sonication (EpiShear™ Probe sonicator, Active Motif, La Hulpe, Belgium), proteins were denatured by heating (5 min, 95 °C) and separated by SDS-PAGE (6% or 12.5% gel). Proteins were transferred onto a nitrocellulose membrane (GE Healthcare, Little Chalfont, UK) via the Protean Mini Cell System (BioRad (München, Germany)). The membrane was blocked with 5% non-fat milk in TBS/0.1% Tween 20 (MERCK, Darmstadt, Germany) (2 h, RT) and incubated with the corresponding primary antibody (1:1000, overnight, 4 °C). After washing with TBS/0.1% Tween 20, the secondary (peroxidase-conjugated) antibody was added (1:2000, 2 h, RT). The Fusion FX7 imaging system (PeqLab, Erlangen, Germany) was used for visualization of the bound antibodies. The following primary antibodies were used: Anti-Ser15 phosphorylated protein 53 (p-p53), anti-Talin-1, anti-Ser 345 checkpoint kinase 1 (p-Chk1), anti-cleaved caspase 3 and 7 (Cell Signaling, Beverly, MA, USA), anti-Ser824 phosphorylated Krüppel-associated box domain (KRAB)-associated protein-1 (p-Kap1), anti-Ser1981 phosphorylated ataxia telangiectasia mutated (pATM) and anti-Thr68 phosphorylated checkpoint kinase-2 (p-Chk2) (both Abcam, Cambridge, MA, USA), anti-Ser139 phosphorylated histone H2AX (γH2AX, Millipore, Billerica, MA, USA), and anti-β-actin (Santa Cruz, CA, USA). As secondary antibodies, horseradish peroxidase-conjugated secondary antibodies goat anti-mouse IgG and mouse anti-rabbit IgG (Rockland, Limerick, PA, USA) (2 h, RT) were used.
# V79 cells [3] = assay: Nuclear γH2AX foci and pan-staining (immunocytochemistry); format: cell-based, hamster; on gH2AX Foci: key: −: no effect; 0: weak effect; +: moderate effect; ++: strong effect; +++: very strong effect as compared to untreated controls; on gH2AX Pan-Stain: key: −: no effect; 0: weak effect; +: moderate effect; ++: strong effect; +++: very strong effect as compared to untreated controls
# Procedure: The frequency of nuclear foci formed by S139 phosphorylated H2AX (γH2AX foci), which is a surrogate marker of DNA damage, especially DNA double-strand breaks (DSBs), was assayed by immunocytochemistry-based analysis. […] The appearance of nuclear 53BP1 foci, which is another marker of DSBs, was also determined by immunocytochemistry. Cells were fixed with 4% formaldehyde in phosphate-buffered saline (PBS) (MERCK, Darmstadt, Germany) (15 min, RT) followed by incubation with ice-cold methanol (≥20 min, −20 °C). After blocking (1 h, RT, blocking solution: 5% BSA (MERCK, Darmstadt, Germany) in PBS/0.3% Triton X-100 (Sigma, Steinheim, Germany)), incubation with γH2AX antibody and 53BP1 antibody was performed (1:500, overnight, 4 °C). After incubation with the secondary fluorescence-labeled antibody (1:500, 1 h, RT, in the dark), cells were mounted in Vectashield (Vector Laboratories (Burlingame, CA, USA)) containing DAPI. The number of nuclear γH2AX and 53BP1 foci was scored (Olympus BX43 fluorescence microscope). Only nuclei with distinct foci were evaluated and γH2AX pan-stained nuclei were excluded from the foci analyses. Data are shown as the mean ± SEM of three independent experiments with ≥50 nuclei analyzed per experimental condition.
# [4] = system: IMR-32 neuroblastoma cells; assay: Alamar blue assay (cell viability), IMR-32 cells; format: cell-based, human
# Procedure: (§1) V79 hamster lung cells, which are recommended in the OECD toxicology guidelines for hazard identification (i.e., cytotoxicity and genotoxicity) of chemicals, were purchased from the German Collection of Microorganisms and Cell Cultures (DSMZ, Braunschweig, Germany). They were cultured in Dulbecco´s modified Eagle medium and Ham´s F12 medium (DMEM/F12) (PromoCell, Heidelberg, Germany) containing 10% fetal calf serum at 37 °C in a humidified atmosphere containing 5% CO2. VC8 hamster cells were defective in DNA double-strand break (DSB) repair by homologous recombination (HR) due to the lack of functional BRCA2 protein [69, 70]. VC8 cells were provided by B. Kaina (Institute of Toxicology, Mainz, Germany). Nucleotide excision repair defective XPA and CSB deficient cells were also provided by B. Kaina and were described before. They were grown in DMEM containing 10% fetal calf serum. Human neuroblastoma cells (IMR-32 and SH-SY5Y) were purchased from the German Collection of Microorganisms and Cell Cultures (DSMZ, Braunschweig, Germany) and were used as a model of malignant cells. They were grown in DMEM or RPMI (Roswell park memorial institute) medium, respectively, containing 10% fetal calf serum. If not stated otherwise, HDACi were added to the exponentially growing cells and analyses were performed 6 h to 72 h later.
# (§2) Cell viability was determined using the Alamar blue assay, which reflected the mitochondrial activity. Viable cells were characterized by an effective mitochondrial metabolization of the non-fluorescent dye resazurin (Sigma, Steinheim, Germany) to fluorescent resorufin (excitation: 535 nm, emission: 590 nm). Relative viability in the untreated control was set to 100%. In addition, the Neutral red assay, which measures the integrity of lysosomal membranes, was used to monitor cytotoxicity. To this end, cells were incubated with the Neutral red solution (0.01%) in an atmosphere containing 5% CO2 for 90 min before they were fixed (1% formaldehyde/1% CaCl2). Afterwards, the Neutral red that was taken up by the cells was extracted (50% ethanol/1% of acetic acid, 15 min at room temperature (RT)) and absorbance (540 nm) was measured. If not stated otherwise, data are shown as the mean ± standard deviation (SD) of two to three independent experiments each performed in quadruplicate. Approximate IC50 (~IC50, see Supplementary Table S1) were calculated from the corresponding dose-response curves.
# [5] = system: SH-SY5Y neuroblastoma cells; assay: Alamar blue assay (cell viability), SH-SY5Y cells; format: cell-based, human
# Procedure: as §1, §2
# [6] = system: SH-SY5Y neuroblastoma cells; assay: Neutral red assay (cytotoxicity), SH-SY5Y cells; format: cell-based, human
# Procedure: as §1, §2
# [7] = 24 h, approximate IC50, read-out: IC50 - 24 h Treatment, SH-SY5Y
# [8] = 72 h, approximate IC50, read-out: IC50 - 72 h Treatment, SH-SY5Y
structure (smiles),measurement,setting,value
Nc1ccc(F)cc1NC(=O)c1ccc(CONC(=O)C=Cc2cccnc2)cc1 [MPK77],Mean (% DNA in tail),"V79 cells [1]; 10 µM, 24 h, V79",34.0 % DNA in tail
same,Mean (% DNA in tail),"V79 cells [1]; 50 µM, 24 h, V79",48.1 % DNA in tail
same,Mean (% DNA in tail),"V79 cells [1]; 100 µM, 24 h, V79",35.5 % DNA in tail
same,DNA strand breaks (comet assay),"V79 cells [1]; 24 h, V79, in words",significant increase in DNA strand breaks at all concentrations tested
same,Comet Assay,"V79 cells [1]; summary grade, V79",+
same,activation of caspase-3 and -7,"V79 cells [2]; 10 µM, 24 h, V79, in words",nor did they activate the executor caspases-3 and -7
same,Apoptosis,"V79 cells [2]; summary grade, calculated on the basis of caspase-3,-7 cleavage and SubG1 population, V79",−
same,> 5 < 30 Foci [%],"V79 cells [3]; 10 µM, 24 h, V79",49.9%
same,Pan-Stained [%],"V79 cells [3]; 10 µM, 24 h, V79",0.0%
same,≤ 5 Foci [%] (cells with γH2AX foci),"V79 cells [3]; 10 µM, 24 h, V79",49.6%
same,≥ 30 Foci [%],"V79 cells [3]; 10 µM, 24 h, V79",0.6%
same,> 5 < 30 Foci [%],"V79 cells [3]; 50 µM, 24 h, V79",41.5%
same,Pan-Stained [%],"V79 cells [3]; 50 µM, 24 h, V79",0.0%
same,≤ 5 Foci [%] (cells with γH2AX foci),"V79 cells [3]; 50 µM, 24 h, V79",58.6%
same,≥ 30 Foci [%],"V79 cells [3]; 50 µM, 24 h, V79",0.0%
same,> 5 < 30 Foci [%],"V79 cells [3]; 100 µM, 24 h, V79",47.9%
same,Pan-Stained [%],"V79 cells [3]; 100 µM, 24 h, V79",10.2%
same,≤ 5 Foci [%] (cells with γH2AX foci),"V79 cells [3]; 100 µM, 24 h, V79",35.5%
same,≥ 30 Foci [%],"V79 cells [3]; 100 µM, 24 h, V79",6.5%
same,formation of nuclear γH2AX foci,"V79 cells [3]; 24 h, V79, in words",relatively low number of γH2AX foci
same,gH2AX Foci,"V79 cells [3]; summary grade, V79",+
same,gH2AX Pan-Stain,"V79 cells [3]; summary grade, V79",0
same,IC50,"[4]; 24 h, approximate IC50, read-out: IC50 - 24 h Treatment, IMR-32",3 µM
same,IC50,"[4]; 72 h, approximate IC50, read-out: IC50 - 72 h Treatment, IMR-32",2 µM
same,IC50,[5]; [7],33 µM
same,IC50,[5]; [8],17 µM
same,IC50,[6]; [7],> 50 µM
same,IC50,[6]; [8],23 µM
